From patent publication US20260001914A1, “MACROCYCLIC PEPTIDES TARGETING KRAS” (Merck Sharp & Dohme LLC, priority 2022, published 2026)
*1 amine or outer side, *2 acyl side, *3 side chain or, on linkers, in order; H or OH if unused. Where a SMILES comes first, the peptide text is derived from it. Bridges are numbered along the chain shown (N, C = ends). [ ]: non-standard residue; d: D form. The star is where a group is joined. NMeNva(5-imidazol-1-yl) = CN[C@@H](CCCn1ccnc1)C(=O)O; Phe(4-guanidino) = N=C(N)Nc1ccc(C[C@H](N)C(=O)O)cc1; X23 = O=C([C@H](Cc1ccc(C(F)(F)F)nc1)N[*:1])[*:2]; Ala(pyrimidin-5-yl) = N[C@@H](Cc1cncnc1)C(=O)O; Ala(thiazol-2-yl) = N[C@@H](Cc1nccs1)C(=O)O; NMePhe(3-F) = CN[C@@H](Cc1cccc(F)c1)C(=O)O; X37 = O=C([C@H](Cc1cnc(F)cc1F)N[*:1])[*:2]; X25 = O=C([C@H](Cc1ccc(F)nc1)N[*:1])[*:2]; X3 = CN([C@@H](Cc1cncnc1)C(=O)[*:2])[*:1]; Phe(4-Cl) = N[C@@H](Cc1ccc(Cl)cc1)C(=O)O; X26 = Cn1cc(C[C@H](N[*:1])C(=O)[*:2])cn1; Phe(4-NH2) = Nc1ccc(C[C@H](N)C(=O)O)cc1; NMeAha = CN[C@@H](CCN=[N+]=[N-])C(=O)O; X2 = O=C([C@H](Cc1ccccc1F)O[*:1])[*:2]; 1Nal = N[C@@H](Cc1cccc2ccccc12)C(=O)O; NHCH2CH2SCH2CO = O=C(CSCCN[*:1])[*:2]; Phe(2-F) = N[C@@H](Cc1ccccc1F)C(=O)O; Abu(4,4-F2) = N[C@@H](CC(F)F)C(=O)O; NMe3Pal = CN[C@@H](Cc1cccnc1)C(=O)O; X1 = O=C(C12CC(CN[*:1])(C1)C2)[*:2]; X17 = O=C([C@H](CCCCF)N[*:1])[*:2]; Ala(cPr) = N[C@@H](CC1CC1)C(=O)O; NMeF = CN[C@@H](Cc1ccccc1)C(=O)O; PhLac = O=C(O)[C@@H](O)Cc1ccccc1; X4 = O=C([C@H](CCCF)N[*:1])[*:2]; 3Pal = N[C@@H](Cc1cccnc1)C(=O)O; Ahp(2) = CCCCC[C@H](N)C(=O)O; Cba = N[C@@H](CC1CCC1)C(=O)O; hLeu = CC(C)CC[C@H](N)C(=O)O; hLys = NCCCCC[C@H](N)C(=O)O; αMeC = C[C@](N)(CS)C(=O)O; NMeA = CN[C@@H](C)C(=O)O; Nle = CCCC[C@H](N)C(=O)O; Pyrrolidide = C1CCN(*)C1; Nva = CCC[C@H](N)C(=O)O

Biological target: KRAS-G12D protein (Homo sapiens, UniProt P01116, G12D)
Sequence (P01116 1-188 isoform P01116-2 G12D): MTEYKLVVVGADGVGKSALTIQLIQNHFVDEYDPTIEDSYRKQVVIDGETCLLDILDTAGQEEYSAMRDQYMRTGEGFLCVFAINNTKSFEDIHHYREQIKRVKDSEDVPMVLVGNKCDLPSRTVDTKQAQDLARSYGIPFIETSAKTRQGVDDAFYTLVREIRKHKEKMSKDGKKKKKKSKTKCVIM
Experiment: SOS-mediated nucleotide exchange assay (BODIPY-GDP / Tb-streptavidin TR-FRET)
Assay type: biochemical

SMILES	EC50 [nM]
CCCCC[C@@H]1NC(=O)[C@H](Cc2ccc(OC)cc2)NC(=O)[C@H](CC2CCC2)NC(=O)[C@H](Cc2ccc(-c3cccnc3N)cc2)NC(=O)[C@H](CCCNC(=N)N)NC(=O)[C@H](Cc2ccccc2)NC(=O)CSC[C@@](C)(C(N)=O)NC(=O)[C@H](Cc2ccccc2)N(C)C1=O [compound 390, cyclo(F-R-Phe43PyNH2-cBuA-TyrOMe-Ahp-NMeF-aMeCl-ClAc)]	9.17
CC(C)CC[C@@H]1NC(=O)[C@H](Cc2cnc(F)cc2F)NC(=O)[C@H](CC2CC2)NC(=O)[C@H](Cc2cncnc2)NC(=O)[C@H](C)N(C)C(=O)[C@H](Cc2ccccc2)OC(=O)C23CC(CNC(=O)[C@H](Cc4ccccc4)N(C)C1=O)(C2)C3 [compound 294, cyclo(FLac-NMeA-PyrimAla-cPrA-3Pal46F2-hL-NMeF-amBCP)] (cyclo([Ala(cPr)][X37][hLeu][NMeF][X1][PhLac][NMeA][Ala(pyrimidin-5-yl)]))	7
CCCC[C@@H]1NC(=O)[C@H](Cc2cccnc2)NC(=O)[C@H](CCCn2ccnc2)N(C)C(=O)[C@H](Cc2ccccc2)NC(=O)C23CC(CNC(=O)[C@H](Cc4cccnc4)N(C)C(=O)[C@H](CCCC)NC(=O)[C@H](Cc4ccccc4F)NC1=O)(C2)C3 [compound 265, cyclo(F-NMeNvalmid~3Pal-Nle-Phe2F-Nlc-NMe3Pal-amBCP)] (cyclo(F[NMeNva(5-imidazol-1-yl)][3Pal][Nle][Phe(2-F)][Nle][NMe3Pal][X1]))	90.9
CCCCC[C@@H]1NC(=O)[C@H](CC(=O)N2CCCC2)NC(=O)[C@H](CC2CCC2)NC(=O)[C@H](Cc2cccnc2)NC(=O)[C@H](CCCNC(=N)N)NC(=O)[C@H](Cc2ccccc2)NC(=O)CSC[C@@](C)(C(N)=O)NC(=O)[C@H](Cc2ccccc2)N(C)C1=O [compound 373, cyclo(F-R~3Pal-cBuA-PyD-Ahp-NMeF-aMeCl-ClAc)] ({CH2CO}-FR[3Pal][Cba]D(Pyrrolidide)[Ahp(2)][NMeF][αMeC]-NH2; thioether N-8)	1970
CCCC[C@@H]1NC(=O)[C@H](Cc2cccnc2)NC(=O)[C@H](C)N(C)C(=O)[C@H](Cc2ccc(F)nc2)NC(=O)C23CC(CNC(=O)[C@H](Cc4cccnc4)N(C)C(=O)[C@H](CCCC)NC(=O)[C@H](Cc4ccccc4F)NC1=O)(C2)C3 [compound 165, cyclo(4F3Pal-NMeA-3Pal-Nle-Phe2F-Nle-NMe3Pal-amBCP)] (cyclo([3Pal][Nle][Phe(2-F)][Nle][NMe3Pal][X1][X25][NMeA]))	1780
CCCC[C@@H]1NC(=O)[C@H](Cc2cccnc2)NC(=O)[C@H](C)N(C)C(=O)[C@H](Cc2ccccc2)OC(=O)C23CC(CNC(=O)[C@H](Cc4cncnc4)N(C)C(=O)[C@H](CCCC)NC(=O)[C@H](Cc4ccccc4F)NC1=O)(C2)C3 [compound 401, cyclo(FLac-NMeA-3Pal-Nle-Phe2F-Nle-NMeAlaPyrim-amBCP)] (cyclo([3Pal][Nle][Phe(2-F)][Nle][X3][X1][PhLac][NMeA]))	29
CC(C)C[C@@H]1NC(=O)[C@H](Cc2ccc(O)cc2)NC(=O)[C@H](CCCNC(=N)N)NC(=O)[C@H](Cc2ccccc2)NC(=O)CSC[C@@H](C(N)=O)NC(=O)[C@H](Cc2ccccc2)N(C)C(=O)[C@H](CCCCCN)NC(=O)[C@H](Cc2ccc(O)cc2)NC1=O [compound 13, cyclo(F-R-Y-L-Y-hK-NMcF-Cl-ClAc)] ({CH2CO}-FRYLY[hLys][NMeF]C-NH2; thioether N-8)	5630
CCCC[C@@H]1NC(=O)[C@H](Cc2ccc(C(F)(F)F)nc2)NC(=O)[C@H](CCN=[N+]=[N-])N(C)C(=O)[C@H](Cc2ccccc2)OC(=O)C23CC(CNC(=O)[C@H](Cc4cccnc4)N(C)C(=O)[C@H](CCCC)NC(=O)[C@H](Cc4ccccc4F)NC1=O)(C2)C3 [compound 241, cyclo(FLac-NMeDabN3-4CF33Pal-Nle-Phe2F-Nle-NMe3Pal-amBCP)] (cyclo([NMe3Pal][X1][PhLac][NMeAha][X23][Nle][Phe(2-F)][Nle]))	435
C[C@H]1C(=O)N[C@@H](Cc2cncnc2)C(=O)N[C@@H](CCCCF)C(=O)N[C@@H](Cc2ccccc2F)C(=O)N[C@@H](CCCCF)C(=O)N(C)[C@@H](Cc2ccccc2)C(=O)NCC23CC(C2)(C3)C(=O)O[C@@H](Cc2ccccc2)C(=O)N1C [compound 128, cyclo(FLac-NMeA-PyrimAla-NleF-Phe2F-NleF-NMeF-amBCP)] (cyclo([NMeA][Ala(pyrimidin-5-yl)][X17][Phe(2-F)][X17][NMeF][X1][PhLac]))	37.4
CC(C)CC[C@@H]1NC(=O)[C@H](Cc2ccccc2F)NC(=O)[C@H](CCCF)NC(=O)[C@H](Cc2cncnc2)NC(=O)[C@H](C)N(C)C(=O)[C@H](Cc2ccccc2)OC(=O)C23CC(CNC(=O)[C@H](Cc4ccccc4)N(C)C1=O)(C2)C3 [compound 133, cyclo(FLac-NMeA-PyrimAla-NvaF-Phe2F-hL-NMeF-amBCP)] (cyclo([NMeA][Ala(pyrimidin-5-yl)][X4][Phe(2-F)][hLeu][NMeF][X1][PhLac]))	7.79
CCCCC[C@@H]1NC(=O)[C@H](Cc2ccc(O)cc2)NC(=O)[C@H](CC(C)C)NC(=O)[C@H](Cc2ccc(O)cc2)NC(=O)[C@H](CCCNC(=N)N)NC(=O)[C@H](Cc2cccc3ccccc23)NC(=O)CSC[C@@H](C(N)=O)NC(=O)[C@H](Cc2ccccc2)N(C)C1=O [compound 7, cyclo(INal-R-Y-L-Y-Ahp-NMeF-Cl-ClAc)] ({CH2CO}-[1Nal]RYLY[Ahp(2)][NMeF]C-NH2; thioether N-8)	1630
CCCC[C@@H]1NC(=O)[C@H](Cc2cccnc2)NC(=O)[C@H](CCN=[N+]=[N-])N(C)C(=O)[C@H](Cc2ccccc2)OC(=O)C23CC(CNC(=O)[C@H](Cc4cccnc4)N(C)C(=O)[C@H](CCCC)NC(=O)[C@H](Cc4ccccc4F)OC1=O)(C2)C3 [compound 238, cyclo(FLac-NMeDabN3-3Pal-Nle-F2FLac-Nle-NMe3Pal-amBCP)] (cyclo([3Pal][Nle][X2][Nle][NMe3Pal][X1][PhLac][NMeAha]))	5590
CCCC[C@@H]1NC(=O)[C@H](Cc2ccc(O)cc2)NC(=O)[C@H](CC(C)C)NC(=O)[C@H](Cc2ccc(O)cc2)NC(=O)[C@H](CCCNC(=N)N)NC(=O)[C@H](Cc2ccc(Cl)cc2)NC(=O)CSCCNC(=O)[C@H](Cc2ccccc2)N(C)C1=O [compound 74, cyclo(-Phe4Cl-R-Y-L-Y-Nle-NMeF-Cysteamine-ClAc)] (cyclo(LY[Nle][NMeF][NHCH2CH2SCH2CO][Phe(4-Cl)]RY))	7070
CCCC[C@@H]1NC(=O)[C@H](Cc2ccc(F)nc2)NC(=O)[C@H](C)N(C)C(=O)[C@H](Cc2ccccc2)OC(=O)C23CC(CNC(=O)[C@H](Cc4ccccc4)N(C)C(=O)[C@H](CCC)NC(=O)[C@H](Cc4ccccc4F)NC1=O)(C2)C3 [compound 234, cyclo(FLac-NMeA-4F3Pal-Nle-Phe2F-Nva-NMeF-amBCP)] (cyclo([NMeA][X25][Nle][Phe(2-F)][Nva][NMeF][X1][PhLac]))	997
CCCC[C@@H]1NC(=O)[C@H](Cc2ccc(O)cc2)NC(=O)[C@H](CC(C)C)NC(=O)[C@H](Cc2ccc(N)cc2)NC(=O)[C@H](CCCNC(=N)N)NC(=O)[C@H](Cc2ccccc2)NC(=O)CSCCNC(=O)[C@H](Cc2ccccc2)N(C)C1=O [compound 79, cyclo(F-R~Phe4NH2-L-Y-Nle-NMeF-Cysteamine-ClAc)] (cyclo(FR[Phe(4-NH2)]LY[Nle][NMeF][NHCH2CH2SCH2CO]))	2360
CCCCC[C@@H]1NC(=O)[C@H](Cc2ccc(OC)cc2)NC(=O)[C@H](CC2CCC2)NC(=O)[C@H](Cc2cncnc2)NC(=O)[C@H](CCCNC(=N)N)NC(=O)[C@H](Cc2ccccc2)NC(=O)CSC[C@@](C)(C(N)=O)NC(=O)[C@H](Cc2ccccc2)N(C)C1=O [compound 367, cyclo(F-R-PyrimAla-cBuA-TyrOMe-Ahp-NMeF-aMeCl-ClAc)] ({CH2CO}-FR[Ala(pyrimidin-5-yl)][Cba]Y(Me)[Ahp(2)][NMeF][αMeC]-NH2; thioether N-8)	4.05
CCCC[C@@H]1NC(=O)[C@H](Cc2cncnc2)NC(=O)[C@H](C)N(C)C(=O)[C@H](Cc2ccccc2)OC(=O)C23CC(CNC(=O)[C@H](Cc4cccc(F)c4)N(C)C(=O)[C@H](CCCC)NC(=O)[C@H](Cc4ccccc4F)NC1=O)(C2)C3 [compound 174, cyclo(FLac-NMeA-PyrimAla-Nle-Phe2F-Nle-NMePhe3F-amBCP)] (cyclo([NMeA][Ala(pyrimidin-5-yl)][Nle][Phe(2-F)][Nle][NMePhe(3-F)][X1][PhLac]))	12.2
CCCC[C@@H]1NC(=O)[C@H](Cc2ccc(NC(=N)N)cc2)NC(=O)[C@H](CCCNC(=N)N)NC(=O)[C@H](Cc2cccc3ccccc23)NC(=O)CNC(=O)[C@H](C)NC(=O)[C@H](Cc2ccccc2)N(C)C(=O)[C@H](CCCC)NC(=O)[C@H](Cc2ccc(O)cc2)NC1=O [compound 199, cyclo(INal-R-Phe4Gn-Nle-Y-Nle-NMeF-A-G)] (cyclo([1Nal]R[Phe(4-guanidino)][Nle]Y[Nle][NMeF]AG))	346
C[C@H]1C(=O)N[C@@H](Cc2cncnc2)C(=O)N[C@@H](CC2CC2)C(=O)N[C@@H](Cc2ccccc2F)C(=O)N[C@@H](CC(F)F)C(=O)N(C)[C@@H](Cc2ccccc2)C(=O)NCC23CC(C2)(C3)C(=O)O[C@@H](Cc2ccccc2)C(=O)N1C [compound 271, cyclo(FLac-NMeA-PyrimAla-cPrA-Phe2F-AbuF2-NMeF-amBCP)] (cyclo([Ala(cPr)][Phe(2-F)][Abu(4,4-F2)][NMeF][X1][PhLac][NMeA][Ala(pyrimidin-5-yl)]))	730
CCCC[C@@H]1NC(=O)[C@H](Cc2nccs2)NC(=O)[C@H](C)N(C)C(=O)[C@H](Cc2ccccc2)OC(=O)C23CC(CNC(=O)[C@H](Cc4ccccc4)N(C)C(=O)[C@H](CCCC)NC(=O)[C@H](Cc4ccccc4F)NC1=O)(C2)C3 [compound 320, cyclo(FLac-NMeA-2TzA-Nle-Phe2F-Nle-NMeF-amBCP)] (cyclo([NMeA][Ala(thiazol-2-yl)][Nle][Phe(2-F)][Nle][NMeF][X1][PhLac]))	4360
CCCC[C@@H]1NC(=O)[C@H](Cc2cnn(C)c2)NC(=O)[C@H](C)N(C)C(=O)[C@H](Cc2ccccc2)OC(=O)C23CC(CNC(=O)[C@H](Cc4cccnc4)N(C)C(=O)[C@H](CCCC)NC(=O)[C@H](Cc4ccccc4F)NC1=O)(C2)C3 [compound 400, cyclo(FLac-NMeA-Ala4PyzlMe-Nle-Phe2F-Nle-NMe3Pal-amBCP)] (cyclo([NMe3Pal][X1][PhLac][NMeA][X26][Nle][Phe(2-F)][Nle]))	14
